Source: patent US7638554B2, “Flavanoids as chemotherapeutic, chemopreventive, and antiangiogenic agents” (SRI International, priority 2002, dated 2009)

Assays:
[1] = test system: membrane-type 1 MMP (MT1-MMP); experiment: MT1-MMP protein expression, MCF-10-CA1a cells; type: cell-based, human
From the text: (§1) Western Blotting. Proteins were separated by gel electrophoresis using 4-12% pre-cast SDS-polyacrylamide gels (Invitrogen, Carlsbad, Calif.) and then electrophoretically transferred onto Hybond™-P membrane (Amersham Biosciences, Piscataway, N.J.). Blots were probed with specific antibodies (Santa Cruz Biotechnology, Inc). The ECL Plus Western Blotting Detection System of Amersham Biosciences (Piscataway, N.J.) and the procedure recommended by the manufacturer was used for the detection of antigens. Protein bands were quantified by analyzing the images obtained using an Alphaimager™ S-3400 (Alpha Innotech Corp., San Leandro, Calif.).
The effects of SR 13179 on the protein expression of TIMP-1, TIMP-2, and membrane-type 1 MMP (MT1-MMP) were studied. SR13179 induced the protein expression of TIMP-2 in a dose- and time-dependent manner. MCF-10-CA1a cells were treated with SR 13179 at 1, 3, or 5 μM concentrations for 48 h, or, alternatively, with […] SR 13179 for 8, 24, or 48 h. Cells were lysed and subjected to Western blotting.
The effect of SR13179 on the extracellular levels of TIMP-2 as well as MMP-2 was also investigated. Treatment of MCF-10CA1a cells with SR13179 at 5 μM concentration caused 5- to 8-fold increase in the secreted level of TIMP-2 and a 2-fold decrease in the extracellular level of MMP-2. […]

[2] = test system: colon cancer cell line HCT-116; experiment: Growth inhibition, sulforhodamine-based protein determination, HCT-116; type: cell-based; conditions: Homo sapiens, HCT-116, 144 h; continuous exposure six days
Procedure: (§2) The novel compound SR 13179 was assayed for its ability to inhibit growth in several cancer cell lines. The cell lines studied included breast cancer cell line MCF-7 (ER+); prostate cancer cell lines LNCaP, PC3, and DU145; lung cancer cell line A427; ovarian cancer cell lines IGROV1, OVCAR-3, OVCAR-4, OVCAR-5, OVCAR-8, and SK-OV-3; and colon cancer cell lines COLO 205, HCC-2998, HCT-116, HCT-15, HT29, KM12, AND SW-620.
(§3) The growth assays for the breast cancer cell lines were conducted according to the method of Example 16. For the other cell lines, each assay was conducted with continuous exposure to the test compound at four log concentrations for six days, using a sulforhodamine-based protein determination to measure growth inhibition.

HUVEC cells = experiment: Apoptosis in HUVEC cells, TUNEL assay; type: cell-based, human
Procedure: The antiproliferative mechanism was investigated by assaying for apoptosis using the method of Gavrieli et al. using a Promega (Madison, Wis.) apoptosis detection kit (Gavrieli et al. (1992) J Cell. Biol. 119:493-501). Briefly, HUVEC cells were treated with four log concentrations of SR 13179 (1 nM, 10 nM, 100 nM, and 1 μM) and fixed for terminal deoxyribonucleotide transferase-mediated dUTP nick end labeling (TUNEL) assay at 3 h and 6 h. The apoptotic cells were labeled with fluorescent dUTP at DNA strand breaks, and were counterstained with Hoechst 33258 to visualize nuclear morphology. Even at concentrations as low as 10 nM at 3 h, apoptosis was clearly evident as pyknotic nuclei. […] At six hours, there appeared to be massive apoptosis at higher concentrations of SR 13179, such that the cells were detached and lost during the washing steps. It thus appears that the antiproliferative effect of SR 13179 on vascular endothelial cells is mediated by apoptosis.

MMP-9 = experiment: Western blotting of cell-associated MMP-9 protein, MCF-10-CA1a cells; type: cell-based, human; conditions: 1, 3, or 5 μM, 48 h
From the text: as §1
The effect of SR 13179 on cell-associated MMP-2 and MMP-9 protein levels was studied. MCF-10-CA1a cells were treated with SR 13179 at 1, 3, or 5 μM concentrations for 48 h. Untreated cells were used as control. Proteins were separated by SDS-Polyacrylamide gel electrophoresis and electrophoretically transformed onto Hybond™ P membrane (Amerhsam Biosciences). Blots were probed with specific antibodies (Santa Cruz Biotechnology Inc.).

[3] = test system: ovarian cancer cell line IGROV1; experiment: Growth inhibition, sulforhodamine-based protein determination, IGROV1; type: cell-based; conditions: Homo sapiens, IGROV-1, 144 h; continuous exposure six days
Procedure: as §2, §3

[4] = test system: ovarian cancer cell line OVCAR-4; experiment: Growth inhibition, sulforhodamine-based protein determination, OVCAR-4; type: cell-based; conditions: Homo sapiens, OVCAR-4, 144 h; continuous exposure six days
Procedure: as §2, §3

[5] = test system: MCF-10CA1a breast cancer cells; experiment: Boyden-chamber Matrigel invasion/migration assay, MCF-10CA1a; type: cell-based, human
Procedure: Cell Culture. MCF-10CA1a cells were cultured in Dulbecco's Modified Eagle Medium (DMEM) supplemented with 5% bovine serum, 2 mM glutamine and 1 mM non-essential amino acids. MDA-MB231 cells were grown in DMEM supplemented with 5% bovine serum. Cells were routinely maintained in a 5% CO2 incubator at 37° C.
General Procedure for Invasion Assay. MCF 10-CA1a or MDA-MB-231 breast cancer cells were treated with 1 or 5 μM of the compound being tested for 8 h. Cells were removed by trypsinizing and tested for their invasiveness by Boyden-chamber invasion assay. In the in vitro invasion/migration assays, a standard Matrigel-based assay, according to the manufacturer's (Becton-Dickinson) protocol, was used. Rehydrated Matrigel and control inserts were added to Falcon TC companion plates containing human fibronectin (30 μg/ml) as chemoattractant. Cellular suspensions (2×10^4 cells/0.5 ml) were added to individual wells of 24-well chambers (containing either control or Matrigel inserts), and the plates incubated (37° C., 5% CO2) in the presence of the compound being tested or vehicle for an additional 16-18 h. Non-invading or non-migrating cells were removed by scraping the top surfaces of the Matrigel and control inserts, respectively. The invading (or migrating) cells (on the bottom surface) were fixed (3.7% formaldehyde) and stained with Accustain (Sigma). The percent invasion was calculated as mean number of invading cells/the mean number of cells migrating through a control membrane×100.
The in vitro invasion through Matrigel was studied for two human breast cancer lines: MCF-10CA1a, a highly metastatic ER^+ line and MDA-MB-231, an ER^− line. […] At this concentration, SR13179 inhibited invasion of MDA-MB-231 by about 30% (and by 70% at 5 μM). To rule out a cytotoxic effect in the inhibition of invasion, a concurrent cytotoxicity assay was carried out and the number of viable cells was determined by MTT assay. There was less than 5% decrease in MDA-MB-231 cell viability at 5 μM concentration of SR13179 at 22 h. […]

## COc1cc(C2CC(O)c3ccc4ccccc4c3O2)cc(OC)c1OC (centres unmarked) [SR 13179, 2-(3,4,5-trimethoxyphenyl)-3,4-dihydro-2H-benzo[h]chromen-4-ol]
[1]
  MT1-MMP protein levels: no significant effect
[2]
  IC50: 310 nM
HUVEC cells; 1 nM, 3 h
  Percent apoptosis: 10.3%
HUVEC cells; 1 nM, 6 h
  Percent apoptosis: 8.5%
HUVEC cells; 10 nM, 3 h
  Percent apoptosis: 10.3%
HUVEC cells; 10 nM, 6 h
  Percent apoptosis: cells detached
HUVEC cells; 100 nM, 3 h
  Percent apoptosis: 11.9%
HUVEC cells; 100 nM, 6 h
  Percent apoptosis: cells detached
HUVEC cells; 1 μM, 3 h
  Percent apoptosis: 16.7%
HUVEC cells; 1 μM, 6 h
  Percent apoptosis: cells detached
HUVEC cells; three hours after exposure, versus control
  increase in the percentage of detected apoptotic cells: two to three fold increase
MMP-9
  cell-associated MMP-9 protein levels: does not affect
[3]
  IC50: 281 nM
[4]
  IC50: 423 nM
[5]; 1 μM
  Invasion: 10 % of Control
  Migration: 70 % of Control
[5]; Homo sapiens, read-out: inhibition of invasion through Matrigel
  inhibition at 1 µM: 90%
